# Laboratory results taken from article PMC3165048 (Chemistry & biology, 2010).
# Legend:
# [1] = system: Replicating M. tuberculosis; experiment: Minimum inhibitory concentration in replicating M. tuberculosis culture; type: cell-based, M. tuberculosis H37Rv
# MtMetAP1c = MtMetAP1c (Mycobacterium tuberculosis, UniProt P9WK18); experiment: biochemical; conditions: […] CoCl2, 600 µM Met-Pro-pNA, 20 min pre-incubation
# [2] = system: Aged-cultured (non-replicating) M. tuberculosis; experiment: microbe, parasite or virus in culture; type: cell-based, M. tuberculosis H37Ra; conditions: Mycobacterium tuberculosis, read-out: M.I.C. Aged-cultured M. tuberculosis
# MtMetAP1a = MtMetAP1a (Mycobacterium tuberculosis, UniProt P9WK20); experiment: Coupled methionine-proline aminopeptidase enzymatic assay; type: biochemical; conditions: […] CoCl2, 600 µM Met-Pro-pNA, 20 min pre-incubation
# Chain of MtMetAP1a (P9WK20 whole entry): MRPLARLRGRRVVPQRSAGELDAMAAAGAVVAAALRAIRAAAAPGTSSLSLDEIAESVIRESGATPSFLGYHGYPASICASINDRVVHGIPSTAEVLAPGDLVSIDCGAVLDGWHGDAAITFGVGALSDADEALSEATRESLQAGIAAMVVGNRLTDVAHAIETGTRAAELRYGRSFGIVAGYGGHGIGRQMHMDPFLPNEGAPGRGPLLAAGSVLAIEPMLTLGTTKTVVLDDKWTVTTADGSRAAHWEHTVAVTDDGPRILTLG
# Chain of MtMetAP1c (P9WK18 whole entry): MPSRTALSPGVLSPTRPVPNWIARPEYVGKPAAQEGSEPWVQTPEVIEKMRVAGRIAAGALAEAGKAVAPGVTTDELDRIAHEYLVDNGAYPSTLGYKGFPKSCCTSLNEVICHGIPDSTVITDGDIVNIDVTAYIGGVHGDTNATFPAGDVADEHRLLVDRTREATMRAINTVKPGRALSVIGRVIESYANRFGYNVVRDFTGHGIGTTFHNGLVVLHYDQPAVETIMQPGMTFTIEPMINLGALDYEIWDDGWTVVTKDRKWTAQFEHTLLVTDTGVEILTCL
smiles,measurement,setting,value
"O=C1C(Cl)=C(Cl)C(=O)c2ccccc21 [Compound 4, 2,3-dichloro-1,4-naphthoquinone]",M.I.C. Replicating M. tuberculosis,[1],10 µg/mL
same,IC50,MtMetAP1c,6.6 ± 1.2 µM
same,MIC,[2],5.7 to 11.4 µg/mL
same,IC50,MtMetAP1a,3.3 ± 0.3 µM
